One block for each molecule: values may come before it.
Columns and labels:
[1] = Growth inhibition of mouse 32D cells harboring FLT3-ITD-D835Y mutant assessed as growth inhibition WST assay; format: functional
EOL1 = test: Growth inhibition of human EOL1 cells assessed as reduction in cell growth by cell viability assay; format: functional
[2] = Growth inhibition of mouse 32D cells harboring FLT3-ITD mutant assessed as growth inhibition by WST assay; format: functional
THP-1 = test: Growth inhibition of human THP-1 cells assessed as reduction in cell growth by cell viability assay; format: functional
[3] = Growth inhibition of mouse 32D cells harboring FLT3-ITD-Y842C mutant assessed as growth inhibition WST assay; format: functional
K562 = test: Growth inhibition of human K562 cells assessed as reduction in cell growth by cell viability assay; format: functional
MV4-11 [4] = test: Growth inhibition of human MV4-11 cells assessed as reduction in cell growth by cell viability assay; format: functional
[5] = Growth inhibition of mouse 32D cells harboring FLT3-ITD-Y842H mutant assessed as growth inhibition WST assay; format: functional
[6] = Growth inhibition of mouse 32D cells harboring FLT3-ITD-F691L mutant assessed as growth inhibition WST assay; format: functional
Kasumi 1 = test: Growth inhibition of human Kasumi 1 cells assessed as reduction in cell growth by cell viability assay; format: functional
MOLM-13 [7] = test: Growth inhibition of human MOLM-13 cells assessed as reduction in cell growth by cell viability assay; format: functional
MOLM-14 = test: Growth inhibition of human MOLM-14 cells assessed as reduction in cell growth by cell viability assay; format: functional
[8] = Growth inhibition of mouse 32D cells harboring FLT3-D835Y mutant assessed as growth inhibition WST assay; format: functional
MOLM-13 [9] = test: Growth inhibition of human MOLM-13 cells by WST-8 assay; format: functional
BaF3 [10] = test: Growth inhibition of mouse BaF3 cells transfected in FLT3-TDK mutant measured after 72 hrs by CCK8 assay; format: functional
[11] = target: Macrophage colony-stimulating factor 1 receptor (Homo sapiens, UniProt P07333); test: Inhibition of FMS (unknown origin)
Chain of Macrophage colony-stimulating factor 1 receptor (P07333 whole entry): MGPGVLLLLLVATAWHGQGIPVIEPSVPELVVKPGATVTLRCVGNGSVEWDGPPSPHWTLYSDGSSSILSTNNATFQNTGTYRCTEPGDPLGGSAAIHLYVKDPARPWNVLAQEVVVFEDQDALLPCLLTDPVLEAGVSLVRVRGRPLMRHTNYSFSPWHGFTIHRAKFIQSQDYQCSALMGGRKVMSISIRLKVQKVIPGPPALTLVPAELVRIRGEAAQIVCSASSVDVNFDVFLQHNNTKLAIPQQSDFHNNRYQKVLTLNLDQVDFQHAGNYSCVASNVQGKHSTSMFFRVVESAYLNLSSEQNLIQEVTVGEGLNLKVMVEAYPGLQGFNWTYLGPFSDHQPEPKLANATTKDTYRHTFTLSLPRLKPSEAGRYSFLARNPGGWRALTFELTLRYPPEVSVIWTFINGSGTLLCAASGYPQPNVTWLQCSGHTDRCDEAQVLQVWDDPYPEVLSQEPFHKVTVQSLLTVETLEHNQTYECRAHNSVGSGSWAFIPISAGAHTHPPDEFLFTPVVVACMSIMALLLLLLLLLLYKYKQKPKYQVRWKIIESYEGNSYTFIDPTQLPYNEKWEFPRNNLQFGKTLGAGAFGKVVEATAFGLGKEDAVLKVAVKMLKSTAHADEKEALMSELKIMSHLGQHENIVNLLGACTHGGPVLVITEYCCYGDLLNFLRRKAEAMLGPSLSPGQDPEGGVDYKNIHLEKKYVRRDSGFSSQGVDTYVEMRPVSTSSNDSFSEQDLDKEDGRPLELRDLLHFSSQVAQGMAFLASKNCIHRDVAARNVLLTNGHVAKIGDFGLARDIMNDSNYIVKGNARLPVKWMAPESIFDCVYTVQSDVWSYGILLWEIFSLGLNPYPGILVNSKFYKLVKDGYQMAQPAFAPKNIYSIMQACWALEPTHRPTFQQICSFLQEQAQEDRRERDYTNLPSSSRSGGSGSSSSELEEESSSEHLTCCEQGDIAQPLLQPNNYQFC

[12] = target: Interleukin-1 receptor-associated kinase 1 (Homo sapiens, UniProt P51617); test: Inhibition of IRAK-1 (unknown origin)
Chain of Interleukin-1 receptor-associated kinase 1 (P51617 whole entry): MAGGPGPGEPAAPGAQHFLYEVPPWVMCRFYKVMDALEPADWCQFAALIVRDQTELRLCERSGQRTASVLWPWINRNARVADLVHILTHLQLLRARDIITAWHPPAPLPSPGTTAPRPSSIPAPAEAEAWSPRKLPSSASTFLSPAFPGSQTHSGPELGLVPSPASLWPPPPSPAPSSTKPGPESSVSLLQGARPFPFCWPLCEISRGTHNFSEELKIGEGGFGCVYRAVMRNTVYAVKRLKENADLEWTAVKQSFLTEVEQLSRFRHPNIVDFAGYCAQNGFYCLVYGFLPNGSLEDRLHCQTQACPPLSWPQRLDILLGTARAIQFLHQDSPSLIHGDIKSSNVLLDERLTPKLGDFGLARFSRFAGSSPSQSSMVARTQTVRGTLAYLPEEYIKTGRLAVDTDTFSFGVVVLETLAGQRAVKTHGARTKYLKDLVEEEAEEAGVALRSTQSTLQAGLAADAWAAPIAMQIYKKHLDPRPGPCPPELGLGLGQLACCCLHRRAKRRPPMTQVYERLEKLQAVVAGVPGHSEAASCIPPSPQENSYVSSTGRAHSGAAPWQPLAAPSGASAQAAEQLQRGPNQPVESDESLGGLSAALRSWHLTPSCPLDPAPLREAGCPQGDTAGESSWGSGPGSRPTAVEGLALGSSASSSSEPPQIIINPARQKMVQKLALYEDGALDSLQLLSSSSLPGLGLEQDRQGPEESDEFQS

MV4-11 [13] = test: Growth inhibition of human MV4-11 cells by WST-8 assay; format: functional
MOLM-13 [14] = test: Growth inhibition of human MOLM-13 cells harboring FLT3 resistant inhibitor assessed as growth inhibition; format: functional
BaF3 [15] = test: Growth inhibition of mouse BaF3 cells transfected in FLT3-ITD mutant measured after 72 hrs by CCK8 assay; format: functional
BaF3 [16] = test: Growth inhibition of mouse BAF3 cells harboring FLT3 ITD mutant assessed as reduction in cell inhibition measured after 72 hrs by MTT assay; format: functional
BaF3 [17] = test: Growth inhibition of mouse BaF3 cells transfected with FLT3-ITD assessed as inhibition of cell growth measured after 48 hrs by MTT assay; format: functional
BaF3 [18] = test: Growth inhibition of mouse BaF3 cells transfected with FLT3-D835Y assessed as inhibition of cell growth measured after 48 hrs by MTT assay; format: functional

- GI50 (THP-1): > 1000 nM
- GI50 (K562): > 1000 nM
- GI50 (MV4-11 [4]): 0.83 nM
- GI50 (MOLM-13 [7]): 1.1 nM
- GI50 (MOLM-14): 1.5 nM
Compound: CCCNc1nc(Nc2ccc(C#N)cc2)ncc1C#CCCCNC(=O)[C@H](C)N(C)C(=O)/C=C/CN(C)C [FF-10101]
- GI50 [1]: 0.81 nM
- GI50 (EOL1): 72 nM
- GI50 [2]: 1.9 nM
- GI50 [3]: 3.5 nM
- GI50 [5]: 5.3 nM
- GI50 [6]: 10 nM
- GI50 (Kasumi 1): 26 nM
- GI50 [8]: 1.1 nM

- GI50 (MOLM-13 [9]): 73 nM
- GI50 (BaF3 [10]): < 434 nM
- IC50 [11]: 39.5 nM
- IC50 [12]: 13.6 nM
- GI50 (MV4-11 [13]): 33 nM
- GI50 (MOLM-13 [14]): 173 nM
- GI50 (BaF3 [15]): 133 nM
Compound: C1=N/C2=N/c3ccc(OCCN4CCCC4)c(c3)COC/C=C/COCc3cccc(c3)C(=C1)N2 [PACRITINIB]

- GI50 (BaF3 [16]): 5 nM
Compound: C[C@]12O[C@H](C[C@]1(O)CO)n1c3ccccc3c3c4c(c5c6ccccc6n2c5c31)CNC4=O [LESTAURTINIB]

- GI50 (BaF3 [17]): 1.8 nM
- GI50 (BaF3 [18]): 1.6 nM
Compound: CCc1nc(C(N)=O)c(Nc2ccc(N3CCC(N4CCN(C)CC4)CC3)c(OC)c2)nc1NC1CCOCC1 [GILTERITINIB]

Source: ChEMBL document CHEMBL5223103, “FLT3 inhibitors for acute myeloid leukemia: successes, defeats, and emerging paradigms” (RSC Med Chem, 2022)
